Tests used:
[1] = tested on: harmful plants such as Stellaria media, Lolium multiforum, Amaranthus retroflexus, Sinapis alba, Avena sativa and Setaria viridis; assay: Pre-emergence effect on weeds (greenhouse pot test); format: in vivo; conditions: application rate of 0.5 kg or less of active ingredient per hectare; applied to soil cover; scored visually after 3 to 4 weeks vs untreated controls
Source text: Seeds or rhizome pieces of monocotyledonous and dicotyledonous weed plants were placed in sandy loam in plastic pots and covered with soil. The compounds according to the invention, which were formulated in the form of wettable powders or emulsion concentrates, were then applied to the surface of the soil cover as aqueous suspension or emulsion at various dosages with an application rate of 600 to 800 l of water per ha (converted).

[2] = tested on: harmful plants such as Sinapis alba, Echinochloa crus-galli, Lolium multiflorum, Stellaria media, Cyperus iria, Amaranthus retroflexus, Setaria viridis, Avena …; assay: Post-emergence effect on weeds (greenhouse pot test); format: in vivo; conditions: application rate of 2 kg or less of active ingredient per hectare; sprayed in the three-leaf stage; scored visually after approx. 3 to 4 weeks vs untreated controls
Description: Seeds or rhizome pieces of monocotyledonous and dicotyledonous weeds were placed in sandy loam in plastic pots, covered with soil and grown in the greenhouse under good growth conditions. Three weeks after sowing, the test plants were treated in the three-leaf stage. Various dosages of the compounds according to the invention, which were formulated as wettable powders or emulsion concentrates, were sprayed to the green plant parts at an application rate of 600 to 800 l of water per ha (converted). After the test plants have been left to stand in the greenhouse for approx. 3 to 4 weeks under optimal growth conditions, the effect of the preparations was scored visually by comparison with untreated controls. Compound nos.

[3] = tested on: plantation crops such as oil palm, coconut palm, India-rubber tree, citrus, pineapples, cotton, coffee, cocoa and vines; assay: Weed control in plantation crops (field trials, crop tolerance); format: in vivo; conditions: natural weed infestation, various dosages, even at high rates of active substance
Description: In further field trials plantation crops were grown under conditions of natural weed infestation and sprayed with various dosages of the substances of formula (I) according to the invention.

Row | Compound | pre-emergence control of harmful plants [1] | herbicidal post-emergence activity against harmful plants [2] | damage to plantation crops (visual assessment) [3] | melting point [°C]
1 | Cc1cccc2c1OCCC2Nc1nc(N)nc(C(F)F)n1 (racemic) [Compound 1.205] | very good pre-emergence control | very good herbicidal post-emergence activity | unharmed | –
2 | Nc1nc(N[C@@H]2CCOc3c(F)cccc32)nc(C(F)F)n1 [Compound 2.206, 6-(Difluoromethyl)-N-[(4R)-8-fluoro-3,4-dihydro-2H-chromen-4-yl]-1,3,5-triazine-2,4-diamine] | very good pre-emergence control | very good herbicidal post-emergence activity | unharmed | –
3 | Cc1ccc2c(c1)[C@H](Nc1nc(N)nc(C(F)F)n1)CCO2 [Compound 2.3] | very good pre-emergence control | very good herbicidal post-emergence activity | unharmed | –
4 | Cc1ccc2c(c1)[C@H](Nc1nc(N)nc(C(F)F)n1)[C@@H](C)C2 [Compound 3.1, 6-(difluoromethyl)-N-[(1R,2S)-2,6-dimethyl-2,3-dihydro-1H-inden-1-yl]-1,3,5-triazine-2,4-diamine] | very good pre-emergence control | very good herbicidal post-emergence activity | unharmed | 132 to 134
5 | Cc1cc(C)c2c(c1)[C@H](Nc1nc(N)nc(C(F)F)n1)CCC2 [Compound 2.5] | very good pre-emergence control | very good herbicidal post-emergence activity | unharmed | –
6 | C[C@H]1Cc2ccc(Br)cc2[C@@H]1Nc1nc(N)nc(C(F)F)n1 [Compound 3.82] | very good pre-emergence control | very good herbicidal post-emergence activity | unharmed | –
7 | Cc1ccc2c(c1)[C@H](Nc1nc(NC=O)nc(C(F)F)n1)[C@@H](C)C2 [Compound 3.118, N-[4-(difluoromethyl)-6-{[(1R,2S)-2,6-dimethyl-2,3-dihydro-1H-inden-1-yl]amino}-1,3,5-triazin-2-yl]-formamide] | – | – | – | 66
8 | Cc1ccc2c(c1)[C@H](Nc1nc(NC(=O)C(C)(C)C)nc(C(F)F)n1)[C@@H](C)C2 [Compound 3.112] | very good pre-emergence control | very good herbicidal post-emergence activity | unharmed | –
9 | Cc1ccc2c(c1)[C@H](Nc1nc(N)nc(C(F)F)n1)CCC2 [Compound 2.2] | very good pre-emergence control | very good herbicidal post-emergence activity | unharmed | –
10 | CC[C@H]1Cc2ccc(C)cc2[C@@H]1Nc1nc(N)nc(C(F)F)n1 [Compound 3.31] | very good pre-emergence control | very good herbicidal post-emergence activity | unharmed | –
11 | Cc1ccc2c(c1)[C@H](Nc1nc(N)nc(C(F)F)n1)CC2 [Compound 2.1] | very good pre-emergence control | very good herbicidal post-emergence activity | unharmed | –
12 | Cc1cc(C)c2c(c1)C(Nc1nc(N)nc(C(F)F)n1)CCC2 (racemic) [Compound 1.5] | very good pre-emergence control | very good herbicidal post-emergence activity | unharmed | –
13 | CC(=O)Nc1nc(N[C@H]2c3cc(C)ccc3C[C@@H]2C)nc(C(F)F)n1 [Compound 3.106] | very good pre-emergence control | very good herbicidal post-emergence activity | unharmed | –
14 | CCC(=O)Nc1nc(N[C@H]2c3cc(C)ccc3C[C@@H]2C)nc(C(F)F)n1 [Compound 3.109, N-(4-(difluoromethyl)-6-{[(1R,2S)-2,6-dimethyl-2,3-dihydro-1H-inden-1-yl]-amino}-1,3,5-triazin-2-yl)propanamide] | very good pre-emergence control | very good herbicidal post-emergence activity | unharmed | –

— US20070238617A1, “Diamino-1,3,5-triazines N-substituted with bicyclic radicals, process for their preparation, compositions thereof, and their use as herbicides and plant growth regulators” (Bayer CropScience AG, priority 2006, published 2007)
